Assay results reported in patent US9650340B2, “5-fluoro-N-(pyridin-2-yl)pyridin-2-amine derivatives containing a sulfoximine group” (BAYER PHARMA AKTIENGESELLSCHAFT, priority 2012, dated 2017).
Values after ≈ are worked out from the molar mass of the structure shown.

What was measured:
[1] = tested on: A2780, human ovarian carcinoma cells; assay: Proliferation assay, A2780 (crystal violet); assay type: cell-based; conditions: Homo sapiens, A2780, 96 h, A2780, 4 days; read-out: Inhibition of A2780 cell proliferation IC50
Experimental: Cultivated tumour cells (HeLa, human cervical tumour cells, ATCC CCL-2; NCI-H460, human non-small cell lung carcinoma cells, ATCC HTB-177; A2780, human ovarian carcinoma cells, ECACC #93112519; DU 145, hormone-independent human prostate carcinoma cells, ATCC HTB-81; HeLa-MaTu-ADR, multidrug-resistant human cervical carcinoma cells, EPO-GmbH Berlin; Caco-2, human colorectal carcinoma cells, ATCC HTB-37; B16F10, mouse melanoma cells, ATCC CRL-6475) were plated at a density of 5,000 cells/well (DU145, HeLa-MaTu-ADR), 3,000 cells/well (NCI-H460, HeLa), 2,500 cells/well (A2780), 1,500 cells/well (Caco-2), or 1,000 cells/well (B16F10) in a 96-well multititer plate in 200 μL of their respective growth medium supplemented 10% fetal calf serum. After 24 hours, the cells of one plate (zero-point plate) were stained with crystal violet (see below), while the medium of the other plates was replaced by fresh culture medium (200 μl), to which the test substances were added in various concentrations (0 μM, as well as in the range of 0.001-10 μM; the final concentration of the solvent dimethyl sulfoxide was 0.5%). The cells were incubated for 4 days in the presence of test substances. Cell proliferation was determined by staining the cells with crystal violet: the cells were fixed by adding 20 μl/measuring point of an 11% glutaric aldehyde solution for 15 minutes at room temperature. After three washing cycles of the fixed cells with water, the plates were dried at room temperature. The cells were stained by adding 100 μl/measuring point of a 0.1% crystal violet solution (pH 3.0). After three washing cycles of the stained cells with water, the plates were dried at room temperature. The dye was dissolved by adding 100 μl/measuring point of a 10% acetic acid solution. The extinction was determined by photometry at a wavelength of 595 nm. The change of cell number, in percent, was calculated by normalization of the measured values to the extinction values of the zero-point plate (=0%) and the extinction of the untreated (0 μm) cells (=100%). The IC50 values (inhibitory concentration at 50% of maximal effect) were determined by means of a 4 parameter fit. Non-adherent MOLM-13 human acute myeloid leukemia cells (DSMZ ACC 554) were seeded at a density of 5,000 cells/well in a 96-well multititer plate in 100 μL of growth medium supplemented 10% fetal calf serum. After 24 hours, cell viability of one plate (zero-point plate) was determined with the Cell Titre-Glo Luminescent Cell Viability Assay (Promega), while 50 μL of test compound containing medium was added to the wells of the other plates (final concentrations in the range of 0.001-10 μM and DMSO controls; the final concentration of the solvent dimethyl sulfoxide was 0.5%). Cell viability was assessed after 72-hour exposure with the Cell Titre-Glo Luminescent Cell Viability Assay (Promega).

[2] = Equilibrium shake flask solubility assay, thermodynamic solubility in citrate buffer pH 4; assay type: physicochemical; conditions: citrate buffer, pH 4, aqueous buffer, thermodynamic from solid, citrate buffer pH 4, 24 h, room temperature; read-out: Solubility in aqueous Citrate buffer pH4
Experimental: 4b) Thermodynamic Solubility in Citrate Buffer pH 4
Thermodynamic solubility was determined by an equilibrium shake flask method [Literature: Edward H. Kerns and Li Di (2008) Solubility Methods in: Drug-like Properties: Concepts, Structure Design and Methods, p276-286. Burlington, Mass.: Academic Press].
A saturated solution of the drug was prepared and the solution was mixed for 24 h to ensure that equilibrium has been reached. The solution was centrifuged to remove the insoluble fraction and the concentration of the compound in solution was determined using a standard calibration curve.
To prepare the sample, 1.5 mg solid compound was weighed in a 4 ml glass vial. 1 ml Citrate buffer pH 4 was added. The suspension was put on a stirrer and mixed for 24 hrs at room temperature. The solution was centrifuged afterwards. To prepare the sample for the standard calibration, 0.6 mg solid sample was dissolved in 19 ml acetonitrile/water 1:1. After sonification the solution was filled up with acetonitrile/water 1:1 to 20 ml.
Sample and standards were quantified by HPLC with UV-detection. For each sample two injection volumes (5 and 50 μl) in triplicates were made. Three injection volumes (5 μl, 10 μl and 20 μl) were made for the standard.
The areas of sample- and standard injections as well as the calculation of the solubility value (in mg/l) were determined by using HPLC software (Waters Empower 2 FR).

Caco-2 permeation assay = assay type: in vitro ADME, human; conditions: human; for Papp A→B at 2 h, 2 µM / Papp B→A at 2 h, 2 µM: Caco-2, pH 7.2, Caco-2, 2 μM test compound; for Papp A→B at 2 h, 2 µM: apical to basolateral, read-out: Papp A-B (Mari); for Papp B→A at 2 h, 2 µM: basolateral to apical, read-out: Papp B-A (Mari); for efflux ratio at 2 h, 2 µM: Caco-2, pH 7.2, Caco-2, 2 μM, Papp B-A / Papp A-B
Experimental: 5. Caco-2 Permeation Assay:
Caco-2 cells (purchased from DSMZ Braunschweig, Germany) were seeded at a density of 4.5×10^4 cells per well on 24 well insert plates, 0.4 μm pore size, and grown for 15 days in DMEM medium supplemented with 10% fetal bovine serum, 1% GlutaMAX (100×, GIBCO), 100 U/mL penicillin, 100 μg/mL streptomycin (GIBCO) and 1% non essential amino acids (100 ×). Cells were maintained at 37° C. in a humified 5% CO2 atmosphere. Medium was changed every 2-3 day. Before running the permeation assay, the culture medium was replaced by a FCS—free hepes-carbonate transport buffer (pH 7.2). For assessment of monolayer integrity the transepithelial electrical resistance (TEER) was measured. Test compounds were predissolved in DMSO and added either to the apical or basolateral compartment in final concentration of 2 μM in transport buffer. Before and after 2 h incubation at 37° C. samples were taken from both compartments. Analysis of compound content was done after precipitation with methanol by LC/MS/MS analysis. Permeability (Papp) was calculated in the apical to basolateral (A→B) and basolateral to apical (B→A) directions. The apparent permeability was calculated using following equation: Papp=(Vr/Po)(1/S)(P2/t)
Where Vr is the volume of medium in the receiver chamber, Po is the measured peak area or height of the test drug in the donor chamber at t=o, S the surface area of the monolayer, P2 is the measured peak area of the test drug in the acceptor chamber after 2 h of incubation, and t is the incubation time. The efflux ratio basolateral (B) to apical (A) was calculated by dividing the Papp B-A by the Papp A-B. In addition the compound recovery was calculated. The following reference compounds were used for the classification of the permeability class: Antipyrine, Pyrazosin, Verapamil, Fluvastatin, Cimetidine, Ranitidine, Atenolol, Sulfasalazine.

IC50 [1] [nM] | solubility at 24 h [2] [µg/mL] | Papp A→B at 2 h, 2 µM (Caco-2 permeation assay) [×10⁻⁶ cm/s] | Papp B→A at 2 h, 2 µM (Caco-2 permeation assay) [×10⁻⁶ cm/s] | efflux ratio at 2 h, 2 µM (Caco-2 permeation assay) | Compound
26 | 489 (≈ 1210 µM) | 15.5 | 18 | – | COc1cc(F)ccc1-c1cc(Nc2cc(CS(C)(=N)=O)ccn2)ncc1F (racemic) [Example 1, (rac)-5-Fluoro-4-(4-fluoro-2-methoxyphenyl)-N-{4-[(S-methylsulfonimidoyl)methyl]pyridin-2-yl}pyridin-2-amine]
37 | 470 (≈ 1120 µM) | 19.6 | 14.9 | 0.76 | COc1cc(F)ccc1-c1cc(Nc2cc(CS(C)(=N)=O)cc(C)n2)ncc1F (racemic) [Example 4, (rac)-5-Fluoro-4-(4-fluoro-2-methoxyphenyl)-N-{6-methyl-4-[(S-methylsulfonimidoyl)methyl]pyridin-2-yl}pyridin-2-amine]
45 | 730 (≈ 1680 µM) | 4.1 | 24.6 | 6 | COc1cc(F)ccc1-c1cc(Nc2cc(CS(=N)(=O)CCO)ccn2)ncc1F (racemic) [Example 8, (rac)-2-{S-[(2-{[5-Fluoro-4-(4-fluoro-2-methoxyphenyl)pyridin-2-yl]amino}pyridin-4-yl)methyl]sulfonimidoyl}ethanol]
14 | 3 (≈ 7.1 µM) | 14.1 | 13.5 | 0.96 | COc1cc(F)ccc1-c1cc(Nc2cc(CS(C)(=N)=O)cc(F)n2)ncc1F (racemic) [Example 17, (rac)-5-Fluoro-4-(4-fluoro-2-methoxyphenyl)-N-{6-fluoro-4-[(S-methylsulfonimidoyl)methyl]pyridin-2-yl}pyridin-2-amine]
12 | 52 (≈ 110 µM) | 4.8 | 5.3 | 1.1 | COc1cc(F)ccc1-c1cc(Nc2cc(CS(C)(=N)=O)cc(C(F)(F)F)n2)ncc1F (single isomer, unassigned; (+)) [Example 22, (+)-5-Fluoro-4-(4-fluoro-2-methoxyphenyl)-N-{4-[(S-methylsulfonimidoyl)methyl]-6-(trifluoromethyl)pyridin-2-yl}pyridin-2-amine]
